Data as given in patent US5414001A, “Antineoplastic pyrrolo[4,3,2-de]quinolin-8(1H)-ones” (American Cyanamid Company, priority 1993, dated 1995).
Values after ≈ are worked out from the molar mass of the structure shown. Values joined by “and” are separate entries in the source; they are usually repeats but may differ in a detail not shown here. Equal entries are not always repeated. Structures can show the parent of a compound that is named as a salt. Where two headings read alike, the source gives them in different places.

How the values were obtained:
[1] = system: DDP (Cisplatin resistant ovarian carcinoma cell line) / S (A2780); assay: SRB cytotoxicity ratio DDP/S (cisplatin resistance); type: cell-based, human
[2] = system: panel of >20 human tumor cell lines; assay: In vitro tumor panel evaluation, Sulforhodamine B (SRB) cytotoxicity assay; type: cell-based; conditions: for IC50: Homo sapiens, 48 h
CaCo2 / CX1 [3] = conditions: human, Caco-2, 48 h
Experimental: (§4) The cytotoxic activity of the pyrrolo[4,3,2-de]quinolin-8(1H)-ones against a panel of >20 human tumor cell lines is determined using the Sulforhodamine B protein dye-binding colorimetric cytotoxicity assay (SRB) described by Skehan et al. (Journal National Cancer Institute 82:1107-1112, 1990), as modified by Monks et al., (Journal National Cancer Institute 83: 757-766, 1991). […] Positive controls (i.e., etoposide) are included in every experiment. Treatments are for 48 hours, after which cells are fixed in 10% trichloroacetic acid (10% final concentration), washed five times with deionized water and stained with SRB solution (0.4% in glacial acetic acid). Protein-bound stain is solubilized with 0.1 ml tris buffer and the adsorbance values are recorded with a microplate reader. Duplicate plates of cells are fixed with trichloroacetic acid at the time of drug addition to establish To values, as described by Monks et al. (JNCl, 83: 757-766, 1991). The effect of drug treatments over the five-long range of concentrations is calculated using the formula, T--To/C--To, to determine the IC50 values.
(§5) 3) The ratio values for DDP/S; CaCo2/CX1; MIP/SW620, and; HCT15/SKBR3 refer to the IC50 value for resistant cell lines included in the tumor cell panel, divided by the IC50 value for corresponding drug sensitive cell lines. For example, DDP is a Cisplatin resistant ovarian carcinoma cell line, and S is the corresponding parent drug sensitive ovarian carcinoma cell line (A2780). […] CaCo2 is a slow growing non P-glycoprotein multidrug resistant colon carcinoma cell line. MIP is a colon carcinoma cell line that expresses P-glycoprotein and is multidrug resistant; SW620 is a drug sensitive colon carcinoma cell line. HCT15 is a colon carcinoma cell line that is resistant to topoisomerase inhibitors and SKBR3 is a breast carcinoma that is very sensitive to topoisomerase inhibitors.

HCT15 / SKBR3 = assay: SRB cytotoxicity ratio HCT15/SKBR3 (topoisomerase resistance); type: cell-based, human; conditions: 2880 min
[4] = system: Ovcar3 human ovarian carcinoma; set-up: species or system human tumor in Balb/C nu/nu athymic mice; conditions: in vivo
MIP / SW620 = assay: SRB cytotoxicity ratio MIP/SW620 (MDR, P-glycoprotein resistance); type: cell-based, human; conditions: 2880 min
P388 murine leukemia = system: P388 murine leukemia; set-up: species or system murine (mice); conditions: mouse, in vivo
BR513 = type: cell-based
CaCo2 / CX1 [5] = assay: SRB cytotoxicity ratio CaCo2/CX1 (growth kinetics); conditions: IC50 resistant / IC50 sensitive cell line, 2880 min
Experimental: as §4, §5

S. aureus 375 = assay: Antibacterial agar diffusion assay; type: cell-based; conditions: H = hazy zones
S. aureus meth r 310 = assay: Antibacterial agar diffusion assay; type: cell-based; conditions: H = hazy zones
E. coli 300 = assay: Antibacterial agar diffusion assay; type: cell-based; set-up: concentration or dose not given beside the values
E. faecium 379 = assay: Antibacterial agar diffusion assay; type: cell-based; conditions: H = hazy zones
Experimental: (§1) One hundred fifty milliliters of agar medium are seeded with 1 ml of diluted culture and aseptically poured into 9 inch×9 inch Nunc bioassay plates. The twenty-five microliters of the test sample dissolved in DMSO are placed in 5.5 mmwells that are cut into agar layer which has been pre-seeded with the test bacterial strains. The plates are incubated at 37° C. for 18-24 hours. Zones of inhibition are recorded.
(§2) ALL SAMPLES IN 20% DMSO
(§3) AGAR DIFFUSION ASSAY 25 microliter sample in 5.5 mm well

S. aureus cipro r 400 = assay: Antibacterial agar diffusion assay; type: cell-based; conditions: 64 microgram/ml; H = hazy zones
Experimental: as §1, §2, §3

C. freundii 395 = assay: Antibacterial agar diffusion assay; type: cell-based; conditions: 1000 microgram/ml; H = hazy zones
B. subtilis 17 = assay: Antibacterial agar diffusion assay; type: cell-based; conditions: H = hazy zones
K. pneumoniae 53 = assay: Antibacterial agar diffusion assay; type: cell-based; conditions: H = hazy zones
[6] = human, ddp/s ovarian carcinoma cells, 2880 min

COc1cc([C@@H]2c3cc4c(cc3[C@@H](O[C@@H]3O[C@@H]5CO[C@@H](C)O[C@H]5[C@H](O)[C@H]3O)[C@H]3COC(=O)[C@H]23)OCO4)cc(OC)c1O [Etoposide, etoposide, reference compound]
cross resistance in the cisplatin resistant cell line DDP [1]: cross resistant
DDP/S IC50 ratio [1, 6]: 53.0
IC50 value of DDP higher than the parent cell line [1, 6]: 53 fold
IC50 ([2]; read-out: AVG IC50): 8.7 µg/mL (≈ 14.8 µM)
IC50 ([2]; read-out: MAX IC50): 27.9 µg/mL (≈ 47.4 µM)
IC50 ([2]; read-out: MIN IC50): 0.12 µg/mL (≈ 0.204 µM)
CaCO2/CX1 IC50 ratio (CaCo2 / CX1 [3]): 4.2
HCT15/SKBR3 IC50 ratio (HCT15 / SKBR3; human, hct15/skbr3 cells): 22.3
HCT15 more resistant than SKBR3 (HCT15 / SKBR3; human, hct15/skbr3 cells): 22 fold
Ovcar3 Min T/C % [4]: 62%
MIP/SW620 IC50 ratio (MIP / SW620; human, mip/sw620 cells): 1.9

C[N+]1=C2C=C(N)C(=O)c3[nH]cc(c32)CC1 [Example 3, 7-amino-1,3,4,8-tetrahydro-5-methyl-8-oxo-pyrrolo[4,3,2-de]quinolinium trifluoroacetate]
P388 ILS % (P388 murine leukemia): 18%
BIA BR513 (BR513; 1000 microgram/ml, T = toxic): 8T
IC50 ([2]; read-out: AVG IC50): 1.7 µg/mL
IC50 ([2]; read-out: MAX IC50): 10 µg/mL
IC50 ([2]; read-out: MIN IC50): 0.06 µg/mL
HCT15/SKBR3 IC50 ratio (HCT15 / SKBR3; IC50 resistant / IC50 sensitive cell line, topoisomerase resistance): 1.9
Ovcar3 Min T/C % [4]: 37%
CaCO2/CX1 IC50 ratio (CaCo2 / CX1 [5]): 0.3
MIP/SW620 IC50 ratio (MIP / SW620; IC50 resistant / IC50 sensitive cell line, MDR (pglycoprotein) resistance): 1.1

O=C1C(NC2Cc3cc(Br)c(O)cc3S2)=CC2=NCCc3c[nH]c1c32 (stereo not drawn) [Example 6, trifluoroacetate]
DDP/S IC50 ratio ([1]; IC50 resistant / IC50 sensitive cell line, cisplatin resistance, 2880 min): 1.8
BIA BR513 (BR513): 8T
ZONES OF INHIBITION (S. aureus 375; 250 microgram/ml): 7H
more potent than the reference topoisomerase inhibitor, etoposide [2]: 1 log
CaCO2/CX1 IC50 ratio (CaCo2 / CX1 [3]): 6.3
HCT15/SKBR3 IC50 ratio (HCT15 / SKBR3; human, hct15/skbr3 cells): 3.5
ZONES OF INHIBITION (S. aureus meth r 310; 64 microgram/ml): 8 MM
ZONES OF INHIBITION (S. aureus meth r 310; 250 microgram/ml): 9 MM
ZONES OF INHIBITION (S. aureus meth r 310; 1000 microgram/ml): 10 MM
ZONES OF INHIBITION (E. coli 300; trifluoroacetate): 12 and 11 and 9
ZONES OF INHIBITION (E. faecium 379; 64 microgram/ml): 9H
ZONES OF INHIBITION (E. faecium 379; 250 microgram/ml): 11H
ZONES OF INHIBITION (E. faecium 379; 1000 microgram/ml): 12H
ZONES OF INHIBITION (S. aureus cipro r 400): 11H
MIP/SW620 IC50 ratio (MIP / SW620; human, mip/sw620 cells): 5.1

CC[C@]1(O)C[C@H]2CN(CCc3c([nH]c4ccccc34)[C@@](C(=O)OC)(c3cc4c(cc3OC)N(C=O)[C@H]3[C@@](O)(C(=O)OC)[C@H](OC(C)=O)[C@]5(CC)C=CCN6CC[C@]43[C@@H]65)C2)C1 [Vincristine, reference compound]
P388 ILS % (P388 murine leukemia): > 91%
Ovcar3 Min T/C % [4]: 53%

CINODINE
ZONES OF INHIBITION (C. freundii 395): 8H
ZONES OF INHIBITION (S. aureus 375; 250 microgram/ml): 7 MM
ZONES OF INHIBITION (S. aureus 375; 1000 microgram/ml): 9 MM
ZONES OF INHIBITION (B. subtilis 17; 64 microgram/ml): 8 MM
ZONES OF INHIBITION (B. subtilis 17; 250 microgram/ml): 11 MM
ZONES OF INHIBITION (B. subtilis 17; 1000 microgram/ml): 13 MM
ZONES OF INHIBITION (S. aureus meth r 310; 1000 microgram/ml): 7 MM
ZONES OF INHIBITION (E. coli 300; 1000 microgram/ml, H = hazy zones): 9 MM
ZONES OF INHIBITION (K. pneumoniae 53; 16 microgram/ml): 8 MM
ZONES OF INHIBITION (K. pneumoniae 53; 64 microgram/ml): 10 MM
ZONES OF INHIBITION (K. pneumoniae 53; 250 microgram/ml): 12 MM
